Data: US9931679B2, “Method for cleaning hard surfaces” (KIMBERLY-CLARK WORLDWIDE, INC., priority 2013, dated 2018)

Tested on: Pseudomonas aeruginosa (ATCC 27853)
Test: Zone of Inhibition Test (AATCC 147-1998, modified)
Format: cell-based
Conditions: diameter of inhibited colony formation; 1.5 by 1.5 cm test material on inoculated agar plate, 48 hours at ambient temperature
Method: Zone of inhibition testing with a variety of gram negative and gram positive bacteria was performed. The test material was brought into contact with a known amount of test microorganisms on an agar plate for 48 hours at ambient temperature. At the end of the contact time the diameter of inhibited colony formation (zone of inhibition) surrounding the test material was measured. […] Referenced method AATCC 147-1998 “Antibacterial Activity Assessment of Textile Materials: Parallel Streak Method” with changes for following Zone of Inhibition procedure (AATCC is “American Association of Textile Chemists and Colorists” located in Research Triangle Park, N.C.): Organisms used in this study were Escherichia coli (ATCC 11229)/Staphylococcus aureus (ATCC 6538)/Pseudomonas aeruginosa (ATCC 27853) (ATCC is “American Type Culture Collection” an organization in Manassas, Va.). Washed cells were diluted in Butterfield's Phosphate buffer to a target titer of approximately 10^8 colony forming units (CFU)/mL. Agar plates for testing were brought to room temperature prior to inoculation. A sterile applicator swab was placed in cell suspension and excess fluid was expressed using the side of the centrifuge tube. […] At the end of the contact time, the diameter of inhibited colony formation (zone of inhibition) surrounding the test material was measured.

SMILES: CN[C@H](CC(C)C)C(=O)N[C@H]1C(=O)N[C@@H](CC(N)=O)C(=O)N[C@H]2C(=O)N[C@H]3C(=O)N[C@H](C(=O)N[C@H](C(=O)O)c4cc(O)cc(O)c4-c4cc3ccc4O)[C@H](O)c3ccc(c(Cl)c3)Oc3cc2cc(c3O[C@@H]2O[C@H](CO)[C@@H](O)[C@H](O)[C@H]2O[C@H]2C[C@](C)(N)[C@H](O)[C@H](C)O2)Oc2ccc(cc2Cl)[C@H]1O [Positive Control, vancomycin]
- P. aeroginosa ZOI* (cm): 1.9 cm
